Laboratory results as given in publication PMC3774728, “Identification of the Plant Compound Geraniin as a Novel Hsp90 Inhibitor” (PLoS ONE, 2013).

Key:
[1] = tested on: Hsp70, Hsp90 and Hsp90 client proteins in HeLa cells; test: Western blot of Hsp70 and Hsp90 client proteins, HeLa; assay type: cell-based, human; settings: 24 h
Procedure: Treated cells were harvested and disrupted by freeze−thawing in RIPA buffer (50 mM Hepes, 10 mM EDTA, 150 mM NaCl, 1% NP-40, 0.5% sodium deoxycholate, 0.1% SDS, pH 7.4), supplemented with protease inhibitors cocktail (Sigma-Aldrich). Cell debris was removed by centrifugation at 4°C and the supernatant protein concentration was determined, according to the Bio-Rad Protein assay (Biorad Laboratories, CA, USA). Total proteins (30 µg) were separated by SDS-PAGE under denatured reducing conditions. Separated proteins were then transferred to nitrocellulose membranes and blocked for 3 h with a solution containing 3% BSA in 50 mM Tris, 200 mM NaCl, 0.1% Tween 20, before incubation at 4°C overnight with the different primary antibodies (diluted 1∶1000) against specific proteins. After washing, the membranes were incubated with an appropriate peroxidase-conjugate secondary antibodies at room temperature (1 h). Immunoreactive protein bands were detected by enhanced chemiluminescence reagent (ECL, Rockford, USA), according to the manufacturer’s instructions. Quantitative densitometry analyses were performed using a Gel Doc 2000 system (Biorad Laboratories, CA, USA).
Figure 7 Effect of geraniin on Hsp90 client protein levels. Equal amounts (30 µg) of whole-cell lysates were separated on SDS-PAGE and client proteins were visualized by western blot analysis using specific antibodies. Actin was used as loading control. Total cellular proteins were extracted 24 h after treatment with geraniin (2.5 µM, 5 µM and 10 µM) in Jurkat cells (A) or geraniin (1 µM, 0.7 µM and 0.5 µM) in HeLa cells (B), ctrl = control cells treated with DMSO). The blots shown are representative of three different experiments with similar results.

recombinant Hsp90α = target: T1, recombinant Hsp90α (Homo sapiens, UniProt P07900); test: Surface plasmon resonance binding to immobilized Hsp90α; settings: SPR, immobilized Hsp90α, 25°C, single-site bimolecular model, 0.025-1 µM; read-out: KD
T1 construct: purchased Assay Designs (Ann Arbor, MI, USA)
Procedure: SPR analyses were carried out according to our previously published procedures, [23]. Briefly, SPR analyses were performed using a Biacore 3000 optical biosensor equipped with research−grade CM5 sensor chips (GE Healthcare). Using this platform, two separate recombinant Hsp90α surfaces, a BSA surface and one unmodified reference surface were prepared for simultaneous analyses. Proteins (100 µg mL^−1 in 10 mM CH3COONa, pH 5.0) were immobilized on individual sensor chip surfaces at a flow rate of 5 µL min^−1 using standard amine−coupling protocols to obtain densities of 8–12 kRU. Polyphenols, as well as 17-AAG and hardwickiic acid (HA), were dissolved in 100% DMSO to obtain 4 mM solutions, and diluted 1∶200 (v/v) in PBS (10 mM NaH2PO4, 150 mM NaCl, pH 7.4) to a final DMSO concentration of 0.5%. […] Binding experiments were performed at 25°C, using a flow rate of 50 µL min^−1, with 60 s monitoring of association and 300 s monitoring of dissociation. Simple interactions were suitably fitted to a single−site bimolecular interaction model (A+B = AB), yielding a single K D. Sensorgram elaborations were performed using the BIAevaluation software provided by GE Healthcare.
Putative interactions of different plant-derived phenolic compounds with Hsp90α were evaluated by a SPR-based approach.

[2] = tested on: PHA-stimulated proliferating PBMC; test: Hypodiploidy/necrosis by flow cytometry, PHA-stimulated PBMC; assay type: cell-based, human; settings: untreated cells 1.5±0.8%
Procedure: Jurkat and HeLa (epithelial carcinoma) cells, obtained from Cell Bank in GMP-IST (Genova, Italy) were maintained in RPMI 1640 medium or Dulbecco’s modified Eagle medium (DMEM), respectively, supplemented with 10% (v/v) FBS, 2 mM L−glutamine and antibiotics (100 U mL^−1 penicillin, 100 µg mL^−1 streptomycin) purchased from Invitrogen (Carslbad, CA, USA), at 37°C in humidified atmosphere with 5% CO2. To ensure logarithmic growth, cells were subcultured every two days. As control cells, human peripheral blood mononuclear cells (PBMC) were isolated from buffy coats of healthy donors (kindly provided by the Blood Center of the Hospital of Battipaglia, Salerno, Italy) by using standard Ficoll−Hypaque gradients. Freshly isolated PBMC contained 92.8±3.1% live cells. Proliferation of PBMC was induced by phytohemagglutinin (PHA) (10 µg mL^−1). […]
Cell DNA content was measured by propidium iodide (PI) incorporation into permeabilized cells, as described by Nicoletti et al.. […] The percentage of cells in the sub G0/G1 phase, apoptotic fraction, was quantified using CellQuest software (Becton Dickinson). The distribution of cells in G0/G1, S, G2/M phases was determined using ModFit LT cell cycle analysis software (Becton Dickinson). Results were expressed as a mean ± SD of three experiments performed in triplicate.

O=C1O[C@H]2[C@@H]3OC(=O)c4cc(O)c(O)c(O)c4-c4c(cc(O)c(O)c4O)C(=O)OC[C@H]2O[C@@H](OC(=O)c2cc(O)c(O)c(O)c2)[C@@H]3OC(=O)c2cc(O)c(O)c3c2[C@@H]2C1=CC(=O)[C@](O)(O3)C2(O)O [Compound 54, geraniin]
Hsp70 expression increase ([1]; 10 µM geraniin): 2.7±0.09 fold | level of Akt [1]: unaffected | level of the client proteins c-Raf, pAkt and EGFR ([1]; IC50 and lower and higher concentrations): dose-dependent decrease | Kd (recombinant Hsp90α): 415 ± 27 nM | levels of hypodiploidy/necrosis [2]: 2.6±1.3%
